{"source": "PubChem BioAssay (NCI)", "assay_in_all_cases": "inhibition of tumour cell growth, NCI panel, 384-well format", "key": {"SF-539 CNS": {"system": "SF-539 CNS"}, "SW-620 colon": {"system": "SW-620 colon"}, "786-0 renal": {"system": "786-0 renal"}, "PC-3 prostate": {"system": "PC-3 prostate"}, "LOX IMVI melanoma": {"system": "LOX IMVI melanoma"}, "SNB-75 CNS": {"system": "SNB-75 CNS"}, "UO-31 renal": {"system": "UO-31 renal"}, "COLO 205 colon": {"system": "COLO 205 colon"}, "SF-268 CNS": {"system": "SF-268 CNS"}, "SK-MEL-5 melanoma": {"system": "SK-MEL-5 melanoma"}, "NCI-H522 lung": {"system": "NCI-H522 lung"}, "IGROV1 ovarian": {"system": "IGROV1 ovarian"}, "HCT-15 colon": {"system": "HCT-15 colon"}}, "note": "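The concentration for 50% growth inhibition is given as GI50. At the TGI there is no net growth.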"}
{"smiles": "COC(=O)c1ccc([C@H]2c3[nH]c4ccccc4c3C[C@H](C(=O)OC)N2C(=O)CCl)cc1", "values": [{"measurement": "GI50", "setting": "SF-539 CNS", "value": 33.9, "unit": "nM"}, {"measurement": "TGI", "setting": "SF-539 CNS", "value": 114, "unit": "nM"}, {"measurement": "GI50", "setting": "SW-620 colon", "value": 199, "unit": "nM"}, {"measurement": "TGI", "setting": "SW-620 colon", "value": 504, "unit": "nM"}, {"measurement": "GI50", "setting": "786-0 renal", "value": 10.4, "unit": "nM"}, {"measurement": "TGI", "setting": "786-0 renal", "value": 25, "unit": "nM"}, {"measurement": "GI50", "setting": "PC-3 prostate", "value": 34.4, "unit": "nM"}, {"measurement": "TGI", "setting": "PC-3 prostate", "value": 140, "unit": "nM"}, {"measurement": "GI50", "setting": "LOX IMVI melanoma", "value": "< 10", "unit": "nM"}, {"measurement": "TGI", "setting": "LOX IMVI melanoma", "value": "< 10", "unit": "nM"}, {"measurement": "GI50", "setting": "SNB-75 CNS", "value": 18.5, "unit": "nM"}, {"measurement": "TGI", "setting": "SNB-75 CNS", "value": 41.4, "unit": "nM"}, {"measurement": "GI50", "setting": "UO-31 renal", "value": "< 10", "unit": "nM"}, {"measurement": "TGI", "setting": "UO-31 renal", "value": "< 10", "unit": "nM"}, {"measurement": "GI50", "setting": "COLO 205 colon", "value": 238, "unit": "nM"}, {"measurement": "TGI", "setting": "COLO 205 colon", "value": 1150, "unit": "nM"}, {"measurement": "GI50", "setting": "SF-268 CNS", "value": 19.5, "unit": "nM"}, {"measurement": "TGI", "setting": "SF-268 CNS", "value": 42.3, "unit": "nM"}, {"measurement": "GI50", "setting": "SK-MEL-5 melanoma", "value": 479, "unit": "nM"}, {"measurement": "TGI", "setting": "SK-MEL-5 melanoma", "value": 1760, "unit": "nM"}, {"measurement": "GI50", "setting": "NCI-H522 lung", "value": "< 10", "unit": "nM"}, {"measurement": "TGI", "setting": "NCI-H522 lung", "value": "< 10", "unit": "nM"}, {"measurement": "GI50", "setting": "IGROV1 ovarian", "value": 14.2, "unit": "nM"}, {"measurement": "TGI", "setting": "IGROV1 ovarian", "value": 27.5, "unit": "nM"}, {"measurement": "GI50", "setting": "HCT-15 colon", "value": 157, "unit": "nM"}, {"measurement": "TGI", "setting": "HCT-15 colon", "value": 913, "unit": "nM"}]}
